Columns and labels:
FR-α positive KB cells [1] = molecular target: T1, FR-α positive KB cells (Homo sapiens, UniProt P15328); assay: Flow cytometry analysis of dye conjugate binding to KB cells; format: cell-based; details: 100 nM, 1 h at 37° C
T1 construct: KB cells, a human nasopharyngeal cancer cell line known to over-express FR-α; host or cells: KB cells
Experimental: (§1) KB cells were allowed to form monolayers in a T75 falcon flask for 48 hours in folate-deficient RPMI 1640 culture medium (FDRPMI). The confluent cells were trypsinized and 1×10^6 cells were transferred into each Eppendorf tube and centrifuged. Spent medium was removed and the pelleted cells were resuspended in fresh medium containing either DMTHF-DyLight™ 680 conjugate (100 nM) or folate-DyLight™ 680 conjugate (100 nM), either in the presence or absence of 100-fold molar excess of free folic acid. After incubation for 1 h at 37° C., the cells were washed 3 times with PBS (0.5 ml) and re-suspended in fresh PBS (0.4 ml). Bound fluorescence was analyzed using a flow cytometer (Cytomics F500; Beckman Coulter).

[2] = molecular target: T2, FR-β positive rat peritoneal macrophages (Rattus norvegicus, UniProt D4A4S5); assay: Flow cytometry analysis of dye conjugate binding to rat peritoneal macrophages; format: cell-based; details: 100 nM, 1 h at 37° C
T2 construct: from tissue; host or cells: CD11b+ peritoneal macrophages from Lewis rats
T2 sequence (D4A4S5 21-252): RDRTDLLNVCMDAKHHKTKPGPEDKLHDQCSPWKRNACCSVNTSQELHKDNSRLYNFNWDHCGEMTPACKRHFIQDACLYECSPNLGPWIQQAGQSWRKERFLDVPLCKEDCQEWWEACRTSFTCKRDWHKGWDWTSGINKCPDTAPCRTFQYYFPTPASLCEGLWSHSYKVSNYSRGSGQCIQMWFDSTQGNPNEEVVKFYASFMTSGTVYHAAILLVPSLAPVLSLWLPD
Experimental: as §1
For similar analysis of rat peritoneal macrophages, experimental adjuvant-induced arthritis was induced in Lewis rats according to a previously reported procedure. After 25 days of arthritis induction, the rats were sacrificed by CO2 asphyxiation and peritoneal macrophages were harvested by injecting 60 mL PBS into the peritoneal cavity, and after brief massage of the abdomen, removing the cells using the injection syringe. Peritoneal cells were transferred to Eppendorf tubes, washed and stained as described above, except CD11b+ macrophages that were identified by co-staining with anti-CD 11b-PE (phycoerythrin-labeled antibody to CD11b).

[3] = molecular target: T3, FR-β positive human peripheral blood monocytes (Homo sapiens, UniProt P14207); assay: Flow cytometry analysis of human peripheral blood monocytes; format: cell-based; details: 100 nM, 1 h at 37° C
T3 construct: Human peripheral blood monocytes were isolated from whole human blood by a known procedures; from tissue; host or cells: human peripheral blood mononuclear cells from healthy volunteers (CD11b+ monocytes)
T3 sequence (P14207 17-230): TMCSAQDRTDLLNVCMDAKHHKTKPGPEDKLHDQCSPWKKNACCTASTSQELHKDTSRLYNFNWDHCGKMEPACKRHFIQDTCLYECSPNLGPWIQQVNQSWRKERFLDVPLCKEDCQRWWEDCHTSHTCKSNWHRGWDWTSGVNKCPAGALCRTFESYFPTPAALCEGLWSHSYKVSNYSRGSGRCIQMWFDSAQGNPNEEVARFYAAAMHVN
Experimental: Human peripheral blood monocytes were isolated from whole human blood by a known procedures. Briefly, whole human blood in anticoagulant was collected from healthy volunteers following informed consent and the mononuclear cells were separated by Ficoll-Paque centrifugation. Cells were re-suspended in Eppendorf tubes in FDRPMI medium containing either DMTHF-Oregon Green™ 488 (100 nM) or folate-Oregon Green™ 488 (100 nM) plus CD 11b Tricolor to label human monocytes. For competition studies 100-fold molar excess of free folic acid was included in the suspension. After incubation for 1 h at 37° C., the cells were washed 3 times with PBS (0.5 ml) and re-suspended in fresh PBS (0.4 ml). Bound fluorescence was analyzed by flow cytometry as described above.

IGROV cells = assay: In vitro cytotoxicity assay ([^3H]-thymidine incorporation) in IGROV cells; format: cell-based, human
Experimental: (§2) KB, RAW or IGROV cells were seeded in 24-well (100,000 cells/well) Falcon plates and allowed to form monolayers overnight. Spent medium was then replaced with fresh medium (0.5 mL) containing increasing concentrations of drug conjugate in the presence or absence of excess folic acid, and cells were incubated for an additional 2 h at 37° C. Cells were washed 3× with fresh medium (0.5 mL) and incubated in fresh medium (0.5 mL) for another 66 h at 37° C. Spent medium in each well was replaced with fresh medium (0.5 mL) containing [^3H]-thymidine ([…]) and the cells were incubated for additional 4 h at 37° C. to allow [^3H]-thymidine incorporation. Cells were then rinsed with medium (3×0.5 mL) and treated with 5% trichloroacetic acid (0.5 mL) for 10 min at room temperature. After replacing trichloroacetic acid with 0.25 N NaOH (0.5 mL), cells were transferred to individual scintillation vials containing Ecolume scintillation cocktail (3.0 mL) and counted in a liquid scintillation counter. IC50 values were calculated by plotting %[^3H]-thymidine incorporation versus log concentration of DMTHF-EC-119-drug conjugate in GraphPad Prism 4.

KB cells = assay: In vitro cytotoxicity assay ([^3H]-thymidine incorporation) in KB cells; format: cell-based, human; details: for IC50: 2 h pulse, additional 66 h incubation
Experimental: The in vitro toxicity of DMTHF-EC-119-TubH, compound 6a, (See FIG. 15) was analyzed in KB cells which were pulsed for 2 h with increasing concentrations of DMTHF-EC-119-TubH in the presence or absence of 100 μM folic acid. After washing to remove unbound conjugate, cells were incubated for an additional 66 h in fresh medium before addition of tritiated thymidine.
as §2

RAW 264.7 cells = assay: In vitro cytotoxicity assay ([^3H]-thymidine incorporation) in RAW 264.7 cells; format: cell-based; details: murine macrophage cell line
Experimental: as §2

FR-α positive KB cells [4] = molecular target: T1, FR-α positive KB cells; assay: Binding affinity of ^99mTc conjugates for KB cells (gamma counting)
Experimental: For evaluation of its affinity for FR-α, increasing concentrations of ^99mTc-DMTHF-chelate were incubated with KB cells, a human nasopharyngeal cancer cell line known to over-express FR-α. The level of bound radioactivity was analyzed using a gamma counter.
KB or CHO-β cells (100,000 cells/well in 500 μl) were plated into 24 well Falcon plates and allowed to form adherent monolayers (ca. 70% confluent) overnight. […] Cells were washed with PBS (3×1.0 mL), after which 0.25 M aqueous NaOH (0.5 ml) was added to dissolve the cells. After 10 minutes incubation, 450 μl from each well were transferred polypropylene tubes and counted for radioactivity in a γ counter (Packard Instrument Company). The binding affinity, Kd, was calculated using GraphPad Prism 4 by plotting cell bound radioactivity versus the concentration of radiotracer added.

[5] = system: M109 tumor and DSS induced ulcerative colitis; assay: Optical imaging of Balb/C mice bearing M109 tumor with DSS induced ulcerative colitis; format: in vivo, mouse; details: 4 h after administration
Experimental: (§3) Radioimages of murine models of human diseases were acquired with a Kodak Imaging Station coupled to a CCD camera operated with Kodak Molecular Imaging Software v 4.0 (Carestream Molecular Imaging). Abdomens were generally shielded with a lead plate in order to mask radioactivity emitted from the kidneys and bladder. The parameters used for radioimaging were: acquisition time=2 min, f-stop=4, focal plane=7, FOV=200, binning=4. For white light imaging, the parameters were: acquisition time=0.05 s, f-stop=11, focal plane=7, FOV=200, with no binning. For fluorescent imaging, abdomens were shielded with black construction paper to block fluorescence emitted from the kidneys and bladder. The parameters used were: acquisition time=30 s, excitation filter of λ=625 nm, emission filter of λ=700 nm, f-stop=4, focal plane=7, FOV=200, and binning=4.
Six week old female Balb/c mice were purchased from Harlan laboratories and maintained on a folate deficient diet (Harlan-Teklad, Wis.). After one week of acclimation, the mice were inoculated subcutaneously on the shoulder with 0.1 mL of M109 tumor cell suspension (1×10^6 cells). Subcutaneous tumor growth was monitored daily and on day 10 post tumor inoculation, 4% dextran sulfate sodium was added to their drinking water for 6 days to induce experimental ulcerative colitis. […]

xenograft KB tumor = assay: Optical imaging of athymic nude mice bearing KB tumor; format: in vivo, mouse; details: athymic nude mice with KB tumor, 4 h after administration
Experimental: as §3
Animals bearing tumors and/or inflammatory diseases were prepared as described above and injected intraperitoneally with DMTHF-DyLight™ 680 or folate-DyLight™ 680 conjugate (4 nmol in 100 μl of PBS). […] To evaluate accumulation of test compounds in specific organs/tissues, animals were dissected and organs/tissues of interest were excised and selected regions of interest were analyzed in the Kodak Imaging Station.

T1 sequence (P15328 25-234): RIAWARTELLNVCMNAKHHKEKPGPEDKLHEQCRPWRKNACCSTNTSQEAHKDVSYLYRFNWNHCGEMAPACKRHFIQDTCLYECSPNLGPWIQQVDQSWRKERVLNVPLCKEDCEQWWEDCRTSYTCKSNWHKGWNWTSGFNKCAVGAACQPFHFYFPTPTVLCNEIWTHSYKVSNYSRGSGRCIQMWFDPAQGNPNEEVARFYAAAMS

Molecule | binding to FR-α+ human KB cells (FR-α positive KB cells [1]) | binding to CD11b+ rat peritoneal macrophages (FR-β) [2] | shift in the CD11b+ subpopulation of human peripheral blood leucocytes (FR-β) [3] | IC50 (IGROV cells) | IC50 (KB cells) | other results
CN(CC1CNc2nc(N)[nH]c(=O)c2N1C)c1ccc(C(=O)N[C@@H](CCC(=O)O)C(=O)O)cc1 (stereo partly shown) [DMTHF, N^5,N^10-dimethyl-tetrahydrofolic acid] | binds FR-α | little affinity for FR-β | lack of affinity |  |  | 
CCC1(O)CC2CN(CCc3c([nH]c4ccccc34)[C@](C(=O)OC)(c3cc4c(cc3OC)N(C)[C@@H]3[C@](O)(C(=O)NNC(=O)OCCSSC[C@H](NC(=O)[C@H](CC(=O)O)NC(=O)[C@H](CC(=O)O)NC(=O)[C@H](CCCNC(=N)N)NC(=O)[C@H](CC(=O)O)NC(=O)CC[C@H](NC(=O)c5ccc(N(C)CC6CNc7nc(N)[nH]c(=O)c7N6C)cc5)C(=O)O)C(=O)O)[C@@H](O)[C@@]5(CC)C=CCN6CC[C@@]43[C@H]65)C2)C1 (stereo partly shown) [DMTHF-EC-119-DAVBH, DMTHF-EC-119-desacetylvinblastine hydrazide] |  |  |  | ~1000 nM | 42 nM | cytotoxicity in RAW 264.7 cells (RAW 264.7 cells): did not show any cytotoxicity
CCCC(=O)OCN(C(=O)[C@@H](NC(=O)[C@H]1CCCCN1C)C(C)CC)[C@H](C[C@@H](OC(C)=O)c1nc(C(=O)N[C@@H](Cc2ccc(O)cc2)C[C@H](C)C(=O)NNC(=O)OCCSSC[C@H](NC(=O)[C@H](CC(=O)O)NC(=O)[C@H](CC(=O)O)NC(=O)[C@H](CCCNC(=N)N)NC(=O)[C@H](CC(=O)O)NC(=O)CC[C@H](NC(=O)c2ccc(N(C)CC3CNc4nc(N)[nH]c(=O)c4N3C)cc2)C(=O)O)C(=O)O)cs1)C(C)C (stereo partly shown) [DMTHF-EC-119-TubH, DMTHF-EC-119-tubulysin B hydrazide] |  |  |  | ~120000 nM | 41 nM | effect of excess folic acid on cytotoxicity (KB cells; 100 μM folic acid): inhibited by excess folic acid
Nc1nc2ncc(CNc3ccc(C(=O)N[C@H](CCC(=O)NC[C@H](N)C(=O)N[C@@H](CC(=O)O)C(=O)N[C@@H](CS)C(=O)O)C(=O)O)cc3)nc2c(=O)[nH]1 [EC20, pteroic acid-Glu-DAP-Asp-Cys] |  |  |  |  |  | competition of KB cell binding by free folic acid (FR-α positive KB cells [4]; 100-fold molar excess of free folic acid): competed by excess free folic acid; Kd (FR-α positive KB cells [4]; KB cells, 1 hour at 37° C, cell bound radioactivity, read-out: apparent Kd): 23 nM
N^5,N^10-Dimethyl Tetrahydrofolate-DyLight™ 680 [DMTHF-DyLight™ 680] | binds avidly | no measurable affinity |  |  |  | fluorescent uptake, ROI analysis of organs/tissues [5]: accumulated mainly in tumors; fluorescent uptake, optical imaging (xenograft KB tumor): tumor selective uptake
N^5,N^10-Dimethyl tetrahydrofolate-Oregon Green™ 488 [DMTHF-Oregon Green] |  |  | did not |  |  | 

Source: patent publication US9629918B2, “Folate receptor alpha binding ligands” (PURDUE RESEARCH FOUNDATION, priority 2012, dated 2017)
